ChEMBL document CHEMBL1156414, “Safety and activity of the immune modulator HE2000 on the incidence of tuberculosis and other opportunistic infections in AIDS patients” (2007)
The source made the active and inactive calls. The calls are words filed in the database; no cut-off is given here.

Columns and labels:
[1] = system: Mycobacterium tuberculosis; assay: Reduction in incidence of Mycobacterium tuberculosis coinfection in AIDS patient at 100 mg administered intramuscularly once daily for 5 days measured 140 days postdose; format: functional, organism-based
[2] = system: Mycobacterium tuberculosis; assay: Reduction in incidence of Mycobacterium tuberculosis coinfection in AIDS patient at 100 mg administered intramuscularly once daily for 5 days; format: functional; set-up: scale not given: the % may be the effect or the level left
Homo sapiens = assay: Reduction in cumulative incidence of opportunistic infections in AIDS patient at 100 mg administered intramuscularly once daily for 5 days; format: functional, organism-based

Structure (SMILES): C[C@]12CC[C@H](O)C[C@@H]1CC[C@@H]1[C@@H]2CC[C@]2(C)C(=O)[C@H](Br)C[C@@H]12 [16.ALPHA.-BROMOEPIANDROSTERONE]
- Activity [1]: Active
- Activity [2]: 42.2%
- Activity (Homo sapiens): Active
